Laboratory results taken from the supplement of paper PMC10307832.

Columns and labels:
Assay in all cases: relative viability (nuclei count vs DMSO), 5 days (fraction); higher = more cells survive
Tipifarnib + Linsitinib = compound: Cn1cncc1[C@@](N)(c1ccc(Cl)cc1)c1ccc2c(c1)c(-c1cccc(Cl)c1)cc(=O)n2C [Tipifarnib] + C[C@]1(O)C[C@@H](c2nc(-c3ccc4ccc(-c5ccccc5)nc4c3)c3c(N)nccn32)C1 [Linsitinib] (partner 1 µM)
In short: (§1)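 Nuclei were stained with Hoechst during a one-step fixation (final 0.05% Triton X-100, 1% formaldehyde, 1 ug/ml Hoechst) carried out 5 days after dosing, then counted on 4× images. The cells, lung cancer lines in 1536-well plates, had been dosed by pin tool the day after seeding with one drug alone or a fixed anchor-drug dose plus five library-drug doses (not always all listed) in √10 steps. Relative viability is the nuclei count in treated wells divided by that in vehicle wells, and each value is the median of duplicate plates.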

Tipifarnib + Pemetrexed = compound: Cn1cncc1[C@@](N)(c1ccc(Cl)cc1)c1ccc2c(c1)c(-c1cccc(Cl)c1)cc(=O)n2C [Tipifarnib] + Nc1nc2[nH]cc(CCc3ccc(C(=O)N[C@@H](CCC(=O)O)C(=O)O)cc3)c2c(=O)[nH]1 [Pemetrexed] (partner 0.2 µM)
In short: as §1

Tipifarnib + Vorinostat = compound: Cn1cncc1[C@@](N)(c1ccc(Cl)cc1)c1ccc2c(c1)c(-c1cccc(Cl)c1)cc(=O)n2C [Tipifarnib] + O=C(CCCCCCC(=O)Nc1ccccc1)NO [Vorinostat] (partner 1 µM)
In short: as §1

Tipifarnib + Olaparib = compound: Cn1cncc1[C@@](N)(c1ccc(Cl)cc1)c1ccc2c(c1)c(-c1cccc(Cl)c1)cc(=O)n2C [Tipifarnib] + O=C(c1cc(Cc2n[nH]c(=O)c3ccccc23)ccc1F)N1CCN(C(=O)C2CC2)CC1 [Olaparib] (partner 8 µM)
In short: as §1

| Cell Line | relative viability (Tipifarnib + Linsitinib; first compound 0.01 µM) | relative viability (Tipifarnib + Linsitinib; first compound 0.03162 µM) | relative viability (Tipifarnib + Linsitinib; first compound 0.1 µM) | relative viability (Tipifarnib + Linsitinib; first compound 0.3162 µM) | relative viability (Tipifarnib + Linsitinib; first compound 1 µM) | relative viability (Tipifarnib + Pemetrexed; first compound 0.01 µM) | relative viability (Tipifarnib + Pemetrexed; first compound 0.03162 µM) | relative viability (Tipifarnib + Pemetrexed; first compound 0.1 µM) | relative viability (Tipifarnib + Pemetrexed; first compound 0.3162 µM) | relative viability (Tipifarnib + Pemetrexed; first compound 1 µM) | relative viability (Tipifarnib + Vorinostat; first compound 0.01 µM) | relative viability (Tipifarnib + Vorinostat; first compound 0.03162 µM) | relative viability (Tipifarnib + Vorinostat; first compound 0.1 µM) | relative viability (Tipifarnib + Vorinostat; first compound 0.3162 µM) | relative viability (Tipifarnib + Vorinostat; first compound 1 µM) | relative viability (Tipifarnib + Olaparib; first compound 0.01 µM) | relative viability (Tipifarnib + Olaparib; first compound 0.03162 µM) | relative viability (Tipifarnib + Olaparib; first compound 0.1 µM) | relative viability (Tipifarnib + Olaparib; first compound 0.3162 µM) | relative viability (Tipifarnib + Olaparib; first compound 1 µM) |
| --- | --- | --- | --- | --- | --- | --- | --- | --- | --- | --- | --- | --- | --- | --- | --- | --- | --- | --- | --- | --- |
| LCLC-97TM1 | 0.204 | 0.169 | 0.174 | 0.192 | 0.169 | 0.169 | 0.208 | 0.192 | 0.16 | 0.144 | 0.657 | 0.166 | 0.518 | 0.394 | 0.121 | 0.447 | 0.245 | 0.315 | 0.229 | 0.239 |
| LCLC-103H | 1.04 | 1.02 | 1.02 | 0.802 | 0.913 | 0.517 | 0.45 | 0.49 | 0.49 | 0.507 | 0.676 | 0.707 | 0.68 | 0.533 | 0.611 | 0.81 | 0.759 | 0.785 | 0.708 | 0.739 |
| LK-2 | 0.499 | 0.506 | 0.399 | 0.379 | 0.487 | 0.31 | 0.313 | 0.279 | 0.232 | 0.122 | 0.262 | 0.237 | 0.244 | 0.193 | 0.168 | 0.779 | 0.651 | 0.443 | 0.329 | 0.347 |
| LOU-NH91 | 0.937 | 0.819 | 0.838 | 0.736 | 0.691 | 0.347 | 0.409 | 0.412 | 0.408 | 0.459 | 0.897 | 0.53 | 0.749 | 0.747 | 0.458 | 0.929 | 0.904 | 0.857 | 0.802 | 0.824 |
| LU99A | 0.563 | 0.477 | 0.299 | 0.257 | 0.272 | 0.201 | 0.202 | 0.2 | 0.217 | 0.196 | 0.389 | 0.385 | 0.327 | 0.271 | 0.277 | 0.293 | 0.23 | 0.226 | 0.245 | 0.202 |
| LXF-289 | 0.989 | 0.951 | 0.865 | 0.876 | 0.897 | 0.849 | 0.884 | 0.835 | 0.759 | 0.526 | 0.775 | 0.755 | 0.665 | 0.59 | 0.332 | 1.12 | 1.02 | 0.989 | 0.805 | 0.91 |
| NCI-H23 | 0.747 | 0.573 | 0.44 | 0.331 | 0.39 | 0.714 | 0.602 | 0.588 | 0.466 | 0.242 | 0.543 | 0.31 | 0.299 | 0.205 | 0.167 | 0.318 | 0.241 | 0.33 | 0.266 | 0.21 |
